Results published in PubChem BioAssay AID248 (DTP/NCI, 2004).
Several values for one entry are separate records, joined by “and”; a condition that tells them apart may be missing. Equal values may be shown once. Inconclusive results and toxic doses are left out. Cut-off read from the data, not from the text of the source: active = T/C of 150% or more; inactive = T/C below 125%.

Tested on: L1210 leukemia ip in BDF1 mice, survival T/C
Test: NCI In Vivo Anticancer Drug Screen. Data for tumor model L1210 Leukemia (intraperitoneal) in B6D2F1 (BDF1) mice
Settings: endpoint: mean survival time, higher = longer survival
How it was run: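 Tumor cells were implanted, animals were treated, and survival was followed. The result divides the treated measurement by the vehicle-control measurement.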

[1] = dose: 3.12 mg/kg/injection, schedule: Q04DX003 (ip), vehicle: saline
[2] = dose: 400.0 mg/kg/injection, schedule: Q04DX002 (ip), vehicle: saline with Tween-80
[3] = dose: 100.0 mg/kg/injection, schedule: Q04DX003 (ip), vehicle: saline with Tween-80
[4] = dose: 200.0 mg/kg/injection, schedule: Q04DX003 (ip), vehicle: saline with Tween-80

Measured: T/C

NC(CCl)=NCC1C2CC3CC(C2)CC1C3 (stereo not drawn)
inactive: dose: 10.0 mg/kg/injection, schedule: Q01DX009 (ip), vehicle: saline 101 % of control | dose: 10.0 mg/kg/injection, schedule: Q04DX002 (ip), vehicle: saline 121 % of control | dose: 20.0 mg/kg/injection, schedule: Q01DX009 (ip), vehicle: saline 116 % of control | dose: 20.0 mg/kg/injection, schedule: Q04DX002 (ip), vehicle: saline 110 % of control | dose: 40.0 mg/kg/injection, schedule: Q04DX002 (ip), vehicle: saline 110 % of control

N#CCC[CH2][Sn]([Br])([Br])[c]1ccccc1
inactive: [1] 91 % of control | dose: 6.25 mg/kg/injection, schedule: Q04DX003 (ip), vehicle: saline 96 % of control | dose: 12.5 mg/kg/injection, schedule: Q04DX003 (ip), vehicle: saline 91 % of control

c1ccc([C](c2ccccc2)(c2ccccc2)[Sn]([c]2ccccc2)([c]2ccccc2)[c]2ccccc2)cc1
inactive: dose: 25.6 mg/kg/injection, schedule: Q04DX002 (ip), vehicle: saline with Tween-80 121 % of control | dose: 64.0 mg/kg/injection, schedule: Q04DX002 (ip), vehicle: saline with Tween-80 86 % of control | dose: 160.0 mg/kg/injection, schedule: Q04DX002 (ip), vehicle: saline with Tween-80 86 % of control | [2] 86 % of control

Nc1cccc(OCc2nc(N)nc(N)c2-c2ccc(Cl)c(Cl)c2)c1
inactive: dose: 100.0 mg/kg/injection, schedule: Q01DX001 (ip), vehicle: saline with Tween-80 97 % of control | dose: 200.0 mg/kg/injection, schedule: Q01DX001 (ip), vehicle: saline with Tween-80 90 % of control

C[N+]1=C2CCCCC2=C(N)CC1
inactive: dose: 6.25 mg/kg/injection, schedule: Q01DX009 (ip), vehicle: saline sonified 106 % of control | dose: 12.5 mg/kg/injection, schedule: Q01DX009 (ip), vehicle: saline sonified 92 % of control | dose: 25.0 mg/kg/injection, schedule: Q01DX009 (ip), vehicle: saline sonified 92 % of control

CC1CC[N-]CC1.CC1CC[N-]CC1.CC1CC[N-]CC1.CC1CC[N-]CC1.[Pt+4]
inactive: dose: 0.39 mg/kg/injection, schedule: Q01DX009 (ip), vehicle: saline 100 % of control | dose: 0.39 mg/kg/injection, schedule: Q04DX003 (ip), vehicle: saline 97 % of control | dose: 0.78 mg/kg/injection, schedule: Q01DX009 (ip), vehicle: saline 92 % of control | dose: 0.78 mg/kg/injection, schedule: Q04DX003 (ip), vehicle: saline 100 % of control | dose: 1.56 mg/kg/injection, schedule: Q01DX009 (ip), vehicle: saline 94 % of control | dose: 1.56 mg/kg/injection, schedule: Q04DX003 (ip), vehicle: saline 102 % of control | [1] 96 % of control

CS/C(N)=N\[N+](=O)[O-]
inactive: dose: 50.0 mg/kg/injection, schedule: Q01DX009 (ip), vehicle: Klucel (hydroxypropylcellulose) (HPC) 89 % of control | dose: 100.0 mg/kg/injection, schedule: Q01DX009 (ip), vehicle: Klucel (hydroxypropylcellulose) (HPC) 110 % of control | dose: 200.0 mg/kg/injection, schedule: Q01DX009 (ip), vehicle: Klucel (hydroxypropylcellulose) (HPC) 114 % of control

CCOC(=O)NCC(CCN1CCCC1)(CCN1CCCC1)c1cccc2ccccc12
inactive: dose: 25.0 mg/kg/injection, schedule: Q04DX002 (ip), vehicle: saline 101 % of control | dose: 50.0 mg/kg/injection, schedule: Q04DX002 (ip), vehicle: saline 93 % of control

CC(NC(=O)NCCCl)c1cccc2ccccc12 (stereo not drawn)
inactive: dose: 100.0 mg/kg/injection, schedule: Q04DX003 (ip), vehicle: Klucel (hydroxypropylcellulose) (HPC) 102 % of control | dose: 200.0 mg/kg/injection, schedule: Q04DX003 (ip), vehicle: Klucel (hydroxypropylcellulose) (HPC) 103 % of control | dose: 400.0 mg/kg/injection, schedule: Q04DX003 (ip), vehicle: Klucel (hydroxypropylcellulose) (HPC) 95 % of control

COc1cc(C(=O)Nc2ccccc2)cc(OC)c1OC
inactive: dose: 100.0 mg/kg/injection, schedule: Q04DX002 (ip), vehicle: saline with Tween-80 102 % of control | dose: 200.0 mg/kg/injection, schedule: Q04DX002 (ip), vehicle: saline with Tween-80 98 % of control | [2] 95 % of control

COc1ccc(OC)c(N(CCN2C(=O)c3ccccc3C2=O)C(=O)CCl)c1
inactive: dose: 25.0 mg/kg/injection, schedule: Q04DX002 (ip), vehicle: Klucel (hydroxypropylcellulose) (HPC) 97 % of control | dose: 50.0 mg/kg/injection, schedule: Q04DX002 (ip), vehicle: Klucel (hydroxypropylcellulose) (HPC) 90 % of control | dose: 100.0 mg/kg/injection, schedule: Q04DX002 (ip), vehicle: Klucel (hydroxypropylcellulose) (HPC) 97 % of control and 91 % of control

CC(=O)[O][Hg][CH]1Cc2ccccc2O1 (stereo not drawn)
inactive: dose: 15.0 mg/kg/injection, schedule: Q01DX001 (ip), vehicle: carboxymethylcellulose (CMC) 94 % of control

C=CCc1cccc(CC=C)c1OCCN(CC)CC
inactive: dose: 25.0 mg/kg/injection, schedule: Q01DX009 (ip), vehicle: saline 98 % of control | dose: 50.0 mg/kg/injection, schedule: Q01DX009 (ip), vehicle: saline 105 % of control | dose: 100.0 mg/kg/injection, schedule: Q01DX009 (ip), vehicle: saline 95 % of control and 107 % of control

O=C(NC(Cc1cnc[nH]1)C(=O)O)OCc1ccccc1 (stereo not drawn)
inactive: dose: 100.0 mg/kg/injection, schedule: Q01DX009 (ip), vehicle: saline with Tween-80 100 % of control | [3] 100 % of control | dose: 200.0 mg/kg/injection, schedule: Q01DX009 (ip), vehicle: saline with Tween-80 100 % of control | [4] 98 % of control | dose: 400.0 mg/kg/injection, schedule: Q01DX009 (ip), vehicle: saline with Tween-80 96 % of control | dose: 400.0 mg/kg/injection, schedule: Q04DX003 (ip), vehicle: saline with Tween-80 101 % of control

O=C(NC(=S)Nc1ccccc1C(=O)O)c1ccccc1
inactive: dose: 50.0 mg/kg/injection, schedule: Q01DX009 (ip), vehicle: saline sonified 96 % of control | dose: 100.0 mg/kg/injection, schedule: Q04DX003 (ip), vehicle: saline sonified 95 % of control | dose: 200.0 mg/kg/injection, schedule: Q01DX009 (ip), vehicle: saline sonified 94 % of control | dose: 200.0 mg/kg/injection, schedule: Q04DX003 (ip), vehicle: saline sonified 95 % of control

CC1CCc2cc3c4ccccc4n(C)c3cc2C1 (stereo not drawn)
inactive: dose: 75.0 mg/kg/injection, schedule: Q01DX001 (ip), vehicle: carboxymethylcellulose (CMC) 107 % of control | dose: 150.0 mg/kg/injection, schedule: Q01DX001 (ip), vehicle: carboxymethylcellulose (CMC) 109 % of control | dose: 300.0 mg/kg/injection, schedule: Q01DX001 (ip), vehicle: carboxymethylcellulose (CMC) 109 % of control

Cc1cccc(C)c1N=Nc1sc(N)nc1C
inactive: dose: 75.0 mg/kg/injection, schedule: Q01DX001 (ip), vehicle: acetone 114 % of control | dose: 150.0 mg/kg/injection, schedule: Q01DX001 (ip), vehicle: acetone 94 % of control | dose: 300.0 mg/kg/injection, schedule: Q01DX001 (ip), vehicle: acetone 110 % of control

CCCCCCCC/C=C\CCCCCCCCOC(N)=O
inactive: dose: 50.0 mg/kg/injection, schedule: Q01DX009 (ip), vehicle: other 96 % of control | dose: 100.0 mg/kg/injection, schedule: Q01DX009 (ip), vehicle: other 94 % of control | [3] 100 % of control | dose: 200.0 mg/kg/injection, schedule: Q01DX009 (ip), vehicle: other 89 % of control | [4] 95 % of control
